Positions of bridges follow the written chain, without caps; N, C: chain ends. Residues, ends and D or L forms follow the SMILES beside them.
Experiments:
[1] = test system: somatotropin; conditions: Brazeau et al., Science, 179 pp 77-79 (1973); cited from earlier work
[2] = test system: growth hormone; test: Arginine-stimulated plasma growth hormone in Nembutal-anesthetized rats (radioimmunoassay); assay type: in vivo, albino male rats; conditions: *p < 0.01
Method: (§1) The in vivo activity of the compounds of this invention was established by subjecting des-(Ala^1, Gly2), Met^11 -Somatostatin, as a representative compound of the invention, to the following standard test procedure: Three groups of ten albino male rats were arranged to provide a control group, a group for observation of Somatostatin activity as the standard and a group for the study of the test compound des-(Ala^1, Gly^2), Met^11 -Somatostatin. Nembutal (50 mg/kg) was injected intraperitoneally into each rat. Fifteen minutes later a subcutaneous injection of the test compound, somatostatin and physiological saline (control) was administered separately to each of the three groups of rats. Ten minutes later 0.5 milliliters of arginine (300 mg/ml, pH 7.2) was injected into the rats heart. The rats were decapitated five minutes later and their blood was collected in Trasylol -EDTA. Aliquot samples were radioimmunoassayed for growth hormone and insulin.

[3] = test system: insulin; test: Arginine-stimulated plasma insulin in Nembutal-anesthetized rats (radioimmunoassay); assay type: in vivo, albino male rats
Method: as §1

| Compound | inhibition of secretion of somatotropin (growth hormone) [1] | GH ([2]; Experiment 2, dose 100 μg/kg subcutaneous, control 176 ± 29) [ng/mL] | GH ([2]; Experiment 3, dose 1500 μg/kg subcutaneous, control 123 ± 16) [ng/mL] | Insulin ([3]; Experiment 1, dose 400 μg/kg subcutaneous, control 172 ± 11, *p < 0.01) [μU/ml] | Insulin ([3]; Experiment 3, dose 1500 μg/kg subcutaneous, control 206 ± 19) [μU/ml] |
| --- | --- | --- | --- | --- | --- |
| H-Ala-Gly-Cys-Lys-Asn-Phe-Phe-Trp-Lys-Thr-Phe-Thr-Ser-Cys-OH (H-AGCKNFFWKTFTSC-OH; ends and bridges not checked) [linear form of somatostatin] | same biological activity as somatostatin obtained from a natural source | – | – | – | – |
| CSCC[C@@H]1NC(=O)[C@H]([C@@H](C)O)NC(=O)[C@H](CCCCN)NC(=O)[C@H](Cc2c[nH]c3ccccc23)NC(=O)[C@H](Cc2ccccc2)NC(=O)[C@H](Cc2ccccc2)NC(=O)[C@H](CC(N)=O)NC(=O)[C@H](CCCCN)NC(=O)[C@@H](N)CSSC[C@@H](C(=O)O)NC(=O)[C@H](CO)NC(=O)[C@H]([C@@H](C)O)NC1=O [Example 3, L-Cysteinyl-L-lysyl-L-asparaginyl-L-phenylalanyl-L-phenylalanyl-L-tryptophyl-L-lysyl-L-threonyl-L-methionyl-L-threonyl-L-seryl-L-cysteine (1-12) disulfide] (H-CKNFFWKTMTSC-OH; disulfide 1-12) | – | 72 ± 12 | 42 ± 10 | 143 ± 13 | 128 ± 13 |
